Structures can show the parent of a compound that is named as a salt.
Structure (SMILES): CC(C)Oc1cc(C(O)CN2CCN(CCc3ccccc3)CC2)ccc1-c1cccc(N)n1 (stereo not shown) (as salt: hydrochloride) [Example 1, 1-[4-(6-AMINO-PYRIDIN-2-YL)-3-ISOPROPOXY-PHENYL]-2-(4-PHENETHYL-PIPERAZIN-1-YL)-ETHANOL]
- melting point: 148 to 165 °C

Source: patent US20020151572A1, “PHARMACEUTICAL USES FOR NOS INHIBITORS” (priority 1998, published 2002)
